{"source": "patent US7297712B2", "about": "“Cationic amphiphiles for intracellular delivery of therapeutic molecules and its composition, process and method of treatment” (Council of Scientific and Industrial Research, priority 2002, dated 2007)"}
{"test_system": "COS-1 cells", "experiment": "Cell transfection, β-galactosidase reporter gene activity", "format": "cell-based", "settings": "pCMV β-gal plasmid 0.15 μg, lipid:DNA charge ratios 0.1:1 to 9:1, compared with DMRIE, FIG. 1", "description": "Similar examples of plasmid include PGL-2 and PGL-3 of Promega and others.\nCell Transfection. COS-1 cells were seeded at a density of 15,000 cells/well in a 96-well plate eighteen hours before the transfection. 0.15 μg of plasmid DNA was complexed with varying amount of lipid (0.05-4.3 nmoles) in 13 μl of plain DMEM medium for 30 min. The charge ratios were varied from 0.1:1 to 9:1 (+/−) over this range of the lipid. The complex was diluted to 100 μl with plain DMEM and added to the wells. After 3 h of incubation, 100 μl of DMEM with 10% FCS was added to the cells. The medium was changed to 10% complete medium after 24 h and the reporter gene activity was estimated after 48 h. The cells were washed twice with PBS and lysed in 50 μl of lysis buffer (0.25 M Tris.HCl, pH 8.0 and 0.5% NP40). Care was taken to ensure complete lysis. The β-galactosidase activity per well was estimated by adding 50 μl of 2× substrate solution (1.33 mg/ml of ONPG, 0.2 M sodium phosphate, pH 7.15 and 2 mM magnesium chloride) to the lysate in a 96-well plate. Absorption at 405 nm was converted to β-galactosidase units by using calibration curve constructed with pure commercial β-galactosidase enzyme. The values of β-galactosidase units in replicate plates assayed on the same day varied by less than 30%. […]"}
{"smiles": "CCCCCCCCCCCCCC[N+]1(CCCCCCCCCCCCCC)CC(O)C(O)C1", "note": "(stereo not drawn) [lipid 2, N,N-di-n-tetradecyl-3,4-dihydroxy pyrrolidinium chloride]", "in vitro transfection efficiency": "comparable to or better than that of DMRIE"}
{"test_system": "EtBr:pCMV β-gal complex (DNA)", "experiment": "Lipid:DNA interactions assay (ethidium bromide exclusion fluorescence)", "format": "binding", "settings": "titration of EtBr:DNA complex with lipid, TE buffer pH 8.0, FIG. 2", "excerpt": "Lipid:DNA Interactions Assay. Intercalation-induced fluorescence increase and competition with cationic lipids to bind to DNA has made Ethidium Bromide (EtBr) an excellent tool to study cationic lipid-DNA interactions. To assess the representative lipid:DNA interactions for the cationic lipids of the present invention, we have titrated the EtBr:pCMV β-gal complex with increasing amounts of cationic lipids 1-5.\nThe extent of Et.Br binding to the DNA was monitored by the changes in the fluorescence. EtBr fluorescence was monitored in Hitachi 4500 fluorimeter by setting the excitation wavelength at 518 nm and emission wavelength at 585 nm. To one ml of TE buffer (pH 8.0), 0.78 nmoles of DNA and 2.5 nmoles of EtBr were added. The change in fluorescence was monitored after adding small volumes of lipids 1-5 to the EtBr:DNA complex. Arbitrary fluorescence values were recorded after allowing sufficient time for equilibration. […] Percent fluorescence was calculated considering the fluorescence value in the absence of lipid as 100."}
{"smiles": "CCCCCCCCCCCCCC[N+]1(CCCCCCCCCCCCCC)CC(O)C(O)C1", "note": "(stereo not drawn) [lipid 2, N,N-di-n-tetradecyl-3,4-dihydroxy pyrrolidinium chloride]", "lipid:DNA interaction (ability to exclude ethidium bromide from DNA)": "interact with DNA equally well up to lipid:DNA ratio of 1.25 or so"}
{"smiles": "CCCCCCCCCCCCCCCC[N+]1(CCCCCCCCCCCCCCCC)CC(O)C(O)C1", "note": "(stereo not drawn) [lipid 3, N,N-di-n-hexadecyl-3,4-dihydroxy pyrrolidinium chloride]", "lipid:DNA interaction (ability to exclude ethidium bromide from DNA)": "interact with DNA equally well up to lipid:DNA ratio of 1.25 or so"}
{"smiles": "CCCCCCCCCCCC[N+]1(CCCCCCCCCCCC)CC(O)C(O)C1", "note": "(stereo not drawn) [lipid 1, N,N-di-n-dodecyl-3,4-dihydroxy pyrrolidinium chloride]", "lipid:DNA interaction (ability to exclude ethidium bromide from DNA)": "interact poorly with DNA"}
{"smiles": "CCCCCCCCCCCCCCCCCC[N+]1(CCCCCCCCCCCCCCCCCC)CC(O)C(O)C1", "note": "(stereo not drawn) [lipid 4, N,N-di-n-octadecyl-3,4-dihydroxy pyrrolidinium chloride]", "lipid:DNA interaction (ability to exclude ethidium bromide from DNA)": "interact poorly with DNA"}
{"smiles": "CCCCCCCC/C=C\\CCCCCCCC[N+]1(CCCCCCCCCCCCCCCCCC)CC(O)C(O)C1", "note": "(stereo not drawn) [lipid 5, N-n-octadecyl-N-oleyl-3,4 dihydroxy pyrrolidinium chloride]", "lipid:DNA interaction (ability to exclude ethidium bromide from DNA)": "interact poorly with DNA"}
